19 molecules from US12173026B2, “PRMT5 inhibitors” (Merck Sharp & Dohme LLC, priority 2018, dated 2024) can be followed below.

Counter-ions that a name gives are not always drawn.

As a reminder, the EC50 is the concentration giving half of the maximal effect.

This assay deals with symmetric dimethylation of arginine (SDMA) of PRMT5 substrates in MCF-7 cells. Nature of the assay: PRMT5 Cell Target Engagement (TE) Assay. The assay is classed as cell-based. Particulars: Homo sapiens, MCF7, 72 h; MCF-7 cells treated for 3 days; nuclear SDMA by high content imaging; top concentration 10000 nM. The text has this:
PRMT5 Cell Target Engagement (TE) Assay
The PRMT5 TE assay is a biomarker assay for identifying compounds that inhibit symmetric dimethylation of arginine (SDMA) of PRMT5 substrates. The following substrates have been reported for PRMT5: Histone H2A and H4 R3, Histone H3 R2, Histone 1-13 R8, spliceosome Sm proteins, ribosomal protein RPS10, p53, FEN1, nucleoplasmin, nucleolin, EGFR and EBNA. The assay will focus on detecting symnetrically dimethylated nuclear proteins using high content imaging technology. Detection of the expression of symmetrically dimethylated nuclear proteins is through a mixture of primary rabbit monoclonal antibodies to SDMA (CST 13222) which in turn recognized by an Alexafluor 488 dye-conjugated anti-rabbit IgG secondary antibody. The IN Cell Analyzer 2200 or Opera-Phenix measures nuclear Alexafluor 488 fluorescent dye intensity that is directly related to the level of expression of symmetrically dimethylated nuclear proteins at the single cell level. Nuclear AF488 dye intensities are compared to the mean value for DMSO treated cells (MIN) to report percent of inhibition for each compound-treated well.
In this assay, the cell potency (EC50) of each compound was determined from a ten point (1:3 serial dilution; top compound concentration of 10000 nM) titration curve using the following outlined procedure. Each well of a BD falcon collagen coated black/clear bottom 384-well plate was seeded with 4000 MCF-7 cells in 30 pal media and allowed to attach for 5 hours. Media is ATCC-formulated Eagle's Minimum Essential Medium, Catalog No. 30-2003. The following components were added to the base medium: 0.01 mg/mL human recombinant insulin; fetal bovine serum to a final concentration of 10%. Additional 30 pal of media containing 2× compounds were added to each well. Cells were treated for 3 days in 37° C. CO2 incubator. On day 3, cells were fixed with Cytofix, permeabilized with 0.4% Triton-X-100/Cytofix, and washed with D-PBS without Ca/Mg. Cells were blocked with Licor Odessey blocking reagent for 1 hour at room temperature, followed by incubation with anti-SDMA (1:1000) antibody at 4° C. overnight. 1° antibody was removed, followed by three washings with DPBS without Ca/Mg and 0.05% Tween20. Hoechst (5 μg/mL), Cell Mask deep stain (1:2000) and Alexa488-conjugated goat anti-rabbit IgG (2 μg/mL) was added for 1 hour at room temperature. A final washing step (three washes) was performed before sealing plate for imaging on in Cell Analyzer 2200 or Opera-Phenix. Images from analyzer were uploaded to Columbus for image analysis. IC50 values were determined by 4 parameters robust fit of percent fluorescence units vs. (Log 10) compound concentrations.
In the case of `COc1ncnc2c1ccn2[C@@H]1O[C@](C)(COc2ccc3cc(Br)c(N)nc3c2)[C@@H](O)[C@H]1O` [Example 12, (2R,3S,4R,5R)-2-(((2-amino-3-bromoquinolin-7-yl)oxy)methyl)-5-(4-methoxy-7H-pyrrolo[2,3-d]pyrimidin-7-yl)-2-methyltetrahydrofuran-3,4-diol], a half-maximal effect (EC50) was put at 10000 nM.

In the case of `C[C@]1(COc2ccc3cc(Br)c(N)nc3c2)O[C@@H](n2ccc3c(N)ncnc32)[C@H](O)[C@@H]1O` [Example 13, (2R,3S,4R,5R)-2-(((2-amino-3-bromoquinolin-7-yl)oxy)methyl)-5-(4-amino-7H-pyrrolo[2,3-d]pyrimidin-7-yl)-2-methyltetrahydrofuran-3,4-diol], the EC50 was found to be 14 nM.

As for `C[C@@]1(O)[C@@H](CCc2ccc3cc(Br)c(N)nc3c2)O[C@@H](n2ccc3c(N)ncnc32)[C@@H]1O` [Example 14, (2R,3S,4R,5R)-2-(2-(2-amino-3-bromoquinolin-7-yl)ethyl)-5-(4-amino-7H-pyrrolo[2,3-d]pyrimidin-7-yl)-3-methyltetrahydrofuran-3,4-diol], the EC50 stood at 17 nM. The EC50 values of the last two molecules are within 1.5-fold of each other.

As for `C[C@]1(CCc2ccc3cc(Br)c(N)nc3c2)C[C@@H](n2ccc3c(N)ncnc32)[C@H](O)[C@@H]1O` [Example 15, (1S,2R,3S,5R)-3-[2-(2-amino-3-bromo-7-quinolinyl)ethyl]-5-(4-amino-7H-pyrrolo[2,3-d]pyrimidin-7-yl)-3-methyl-1,2-cyclopentanediol], the EC50 worked out at 0.5 nM.

`Cc1ncnc2c1ccn2[C@@H]1C[C@@H]2[C@H](Cc3ccc4cc(F)c(N)nc4c3)CC[C@]2(O)[C@H]1O` [Example 16, (1S,2R,3aR,4S,6aR)-4-((2-amino-fluoroquinolin-7-yl)methyl)-2-(4-methyl-7H-pyrrolo[2,3-d]pyrimidin-7-yl)hexahydropentalene-1,6a(1H)-diol] displayed a 50% effective concentration (EC50) of 0.9 nM.

Consider `Cc1ncnc2c1ccn2[C@@H]1C[C@@H]2[C@H](Cc3ccc4cc(Cl)c(N)nc4c3)CC[C@]2(O)[C@H]1O` [Example 17, (1S,2R,3aR,4S,6aR)-4-((2-amino-3-chloroquinolin-7-yl)methyl)-2-(4-methyl-7H-pyrrolo[2,3-d]pyrimidin-7-yl)hexahydropentalene-1,6a(1H)-diol], for which the midpoint of the response, the EC50, lay at 0.9 nM.

Take `Cc1ncnc2c1ccn2[C@@H]1C[C@@H]2[C@@H](Cc3ccc4cc(F)c(N)nc4c3)CC[C@]2(O)[C@H]1O` [Example 18, (1S,2R,3aR,4R,6aR)-4-((2-amino-3-fluoroquinolin-7-yl)methyl)-2-(4-methyl-7H-pyrrolo[2,3-d]pyrimidin-7-yl)hexahydropentalene-1,6a(1H)-diol]: the EC50 was 10.6 nM.

The molecule `Cc1ncnc2c1ccn2[C@@H]1C[C@@H]2[C@H](Cc3ccc4cc(Br)c(N)nc4c3)CC[C@]2(O)[C@H]1O` [Example 19, (1S,2R,3aR,4S,6aR)-4-((2-amino-3-bromoquinolin-7-yl)methyl)-2-(4-methyl-7H-pyrrolo[2,3-d]pyrimidin-7-yl)hexahydropentalene-1,6a(1H)-diol] came in with an EC50 of 1.1 nM.

Regarding `Nc1nc2c(F)c(C[C@@H]3CC[C@@]4(O)[C@@H]3O[C@@H](n3ccc5c(N)ncnc53)[C@@H]4O)ccc2cc1F` [Example 20, (2R,3R,3aS,6S,6aR)-6-[(2-amino-3,8-difluoroquinolin-7-yl)methyl]-2-(4-amino-7H-pyrrolo[2,3-d]pyrimidin-7-yl)hexahydro-3aH-cyclopenta[b]furan-3,3a-diol], the response was half-maximal at 18.6 nM (EC50).

On to `Nc1nc2cc(C[C@@H]3CC[C@@]4(O)[C@@H]3O[C@@H](n3ccc5c(N)ncnc53)[C@@H]4O)cc(F)c2cc1Cl` [Example 21, (2R,3R,3aS,6S,6aR)-6-[(2-amino-3-chloro-5-fluoroquinolin-7-yl)methyl]-2-(4-amino-7H-pyrrolo[2,3-d]pyrimidin-7-yl)hexahydro-3aH-cyclopenta[b]furan-3,3a-diol], for which the midpoint of the response, the EC50, lay at 0.5 nM.

`Cc1ncnc2c1ccn2[C@@H]1O[C@@H]2[C@H](Cc3ccc4cc(Cl)c(N)nc4c3F)CC[C@]2(O)[C@H]1O` [Example 22, (2R,3R,3aS,6S,6aR)-6-[(2-amino-3-chloro-8-fluoroquinolin-7-yl)methyl]-2-(4-methyl-7H-pyrrolo[2,3-d]pyrimidin-7-yl)hexahydro-3aH-cyclopenta[b]furan-3,3a-diol] came in with an EC50 of 30 nM.

`Cc1ncnc2c1ccn2[C@@H]1O[C@@H]2[C@H](Cc3ccc4cc(C(F)F)c(N)nc4c3)CC[C@]2(O)[C@H]1O` [Example 23, (2R,3R,3aS,6S,6aR)-6-((2-amino-3-(difluoromethyl)quinolin-7-yl)methyl)-2-(4-methyl-7H-pyrrolo[2,3-d]pyrimidin-7-yl)hexahydro-3aH-cyclopenta[b]furan-3,3a-diol]: the EC50 was 1.5 nM.

`Nc1nc2cc(C[C@@H]3CC[C@@]4(O)[C@@H]3O[C@@H](n3cc(F)c5c(N)ncnc53)[C@@H]4O)cc(F)c2cc1F` [Example 24, (2R,3R,3aS,6S,6aR)-6-((2-amino-3,5-difluoroquinolin-7-yl)methyl)-2-(4-amino-5-fluoro-7H-pyrrolo[2,3-d]pyrimidin-7-yl)hexahydro-3aH-cyclopenta[b]furan-3,3a-diol]: a half-maximal response (EC50) required 1.3 nM. The EC50 values of the last two molecules are within 1.5-fold of each other.

Take `Cc1ncnc2c1ccn2[C@@H]1O[C@@H]2[C@H](Cc3cnc4cc(F)c(N)nc4c3)CC[C@]2(O)[C@H]1O` [Example 25, (2R,3R,3aS,6S,6aR)-6-((6-amino-7-fluoro-1,5-naphthyridin-3-yl)methyl)-2-(4-methyl-7H-pyrrolo[2,3-d]pyrimidin-7-yl)hexahydro-3aH-cyclopenta[b]furan-3,3a-diol, 3HCl]: the EC50 was found to be 258 nM.

For `Nc1nc2c(F)c(C[C@@H]3CC[C@@]4(O)[C@@H]3O[C@@H](n3ccc5c(N)ncnc53)[C@@H]4O)ccc2cc1Cl` [Example 26, (2R,3R,3aS,6S,6aR)-6-((2-amino-3-chloro-8-fluoroquinolin-7-yl)methyl)-2-(4-amino-7H-pyrrolo[2,3-d]pyrimidin-7-yl)hexahydro-3aH-cyclopenta[b]furan-3,3a-diol], the midpoint of the response, the EC50, lay at 4 nM.

Molecule `Nc1nc2cc(C[C@@H]3CC[C@@]4(O)[C@@H]3O[C@@H](n3ccc5c(N)ncnc53)[C@@H]4O)c(F)cc2cc1F` [Example 27] displayed an EC50 of 2.8 nM.

On to `Nc1nc2nc(C[C@@H]3CC[C@@]4(O)[C@@H]3O[C@@H](n3ccc5c(N)ncnc53)[C@@H]4O)ccc2cc1Cl` [Example 28, (2R,3R,3aS,6S,6aR)-6-(7-amino-6-chloro-1,8-naphthyridin-2-yl)methyl)-2-(4-amino-7H-pyrrolo[2,3-d]pyrimidin-7-yl)hexahydro-3aH-cyclopenta[b]furan-3,3a-diol trihydrochloride], for which the EC50 was found to be 13 nM.

`Nc1nc2cc(C[C@@H]3CC[C@@]4(O)[C@@H]3O[C@@H](n3ccc5c(N)ncnc53)[C@@H]4O)cc(F)c2cc1F` [Example 29, (2R,3R,3aS,6S,6aR)-6-[(2-amino-3,5-difluoroquinolin-7-yl)methyl]-2-(4-amino-7H-pyrrolo[2,3-d]pyrimidin-7-yl)hexahydro-3aH-cyclopenta[b]furan-3,3a-diol]: a half-maximal effect (EC50) was put at 1.7 nM.

On to `Nc1nc2cc(C[C@@H]3CC[C@@]4(O)[C@@H]3C[C@@H](n3cc(F)c5c(N)ncnc53)[C@@H]4O)cc(F)c2cc1F` [Example 30, (1S,2R,3aR,4S,6aR)-4-((2-amino-3,5-difluoroquinolin-7-yl)methyl)-2-(4-amino-5-fluoro-7H-pyrrolo[2,3-d]pyrimidin-7-yl)hexahydropentalene-1,6a(1H)-diol], for which the 50% effective concentration (EC50) is 0.8 nM.
